Results published in ChEMBL document CHEMBL1201862, “PubChem BioAssay data set” (2004).
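In this assay, cells in 96-well plates receive the compound at five concentrations for 48 hours. Endpoints are linearly interpolated between the surrounding concentrations. The concentration for 50% growth inhibition is given as GI50.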 Activity calls are given as the source filed them. Rule as the data show it: active = GI50 up to about 1.1 µM and inactive = higher.

What was measured:
Experiment in all cases: NCI anticancer screen, dose series, 48 h
[1] = system: ACHN
[2] = system: DLD-1
[3] = system: DMS-273
[4] = system: HOP-18
[5] = system: LXFL 529
[6] = system: M19-MEL
[7] = system: Malme-3M
[8] = system: NCI-H226
[9] = system: OVCAR-5
[10] = system: SF-268
[11] = system: SF-295
[12] = system: SK-MEL-2
[13] = system: SNB-78
[14] = system: SR
[15] = system: UO-31
[16] = system: MCF7
[17] = system: MDA-MB-435
[18] = system: NCI/ADR-RES
[19] = system: PC-3
[20] = system: T47D

Measured: GI50

O=C=C=P(c1ccccc1)(c1ccccc1)c1ccccc1
inactive: [1] > 100 µM | [2] > 100 µM | [3] 36.9 µM | [4] 21.6 µM | [5] 35 µM | [6] 27.1 µM | [7] 30.6 µM | [8] 45.6 µM | [9] 28.5 µM | [10] 69.2 µM | [11] > 100 µM | [12] 49.5 µM | [13] 39.7 µM | [14] 86.7 µM | [15] > 100 µM

COC(=O)C1C(C)N1C (stereo not drawn)
inactive: [2] > 100 µM | [3] > 100 µM | [5] > 100 µM | [6] > 100 µM | [8] > 100 µM | [13] > 100 µM

CCOC(=O)NC(Nc1ncccn1)(C(=O)OCC)C(F)(F)F (stereo not drawn)
inactive: [1] > 100 µM | [16] > 100 µM | [17] > 100 µM | [18] > 100 µM | [9] > 100 µM | [19] > 100 µM | [10] > 100 µM | [11] > 100 µM | [12] > 100 µM | [14] > 100 µM | [20] 56 µM | [15] > 100 µM
